# “Also recorded” adds a separate entry of the source.
# Legend:
# [1] = test system: alcoholic-induced liver cirrhosis; details: patients with alcoholic-induced liver cirrhosis; cited from earlier work
# [2] = test system: angina; details: conscious rats; cited from earlier work
# [3] = test system: TAA induced fibrotic livers; assay: Thioacetamide (TAA)-induced chronic liver fibrosis rat model: liver function index in blood (GOT, GPT, total bilirubin, albumin, prothrombin time); assay type: in vivo, Wistar rats
# Method: (§1) 5 ml/kg of thioacetamide (TAA) was injected intraperitoneally into Wistar rats every three days for eight weeks to induce the liver damage. The therapy was performed starting from the fifth week during the thioacetamide induction. 80 mg/Kg/day or 500 mg/Kg/day of n-BP were orally administrated in experimental rats for four weeks.
# (§2) To establish the chronic liver fibrosis model in rat, adult male Wistar rats (320±20 g) were used and were intraperitoneally injected with 200 mg/kg TAA (Sigma-Aldrich) once every 3 days for 8 weeks as the liver fibrosis model (78 rats). In the Normal group (24 rats), normal saline was used in place of the TAA. At the end of 4, 6, 8, and 10 weeks (i.e., day 28, 42, 56, and 70 respectively), these rats were sacrificed and cardiac blood samples were collected. These samples were analyzed with a biochemical analyzer (Integra 800; Roche, Holliston, Mass., USA) to measure the liver function index, which included glutamate oxaloacetate transaminase (GOT), glutamate pyruvate transaminase (GPT), serum albumin, total bilirubin and prothrombin time.
# (§3) 78 rats with TAA induced fibrotic livers were randomly divided into 4 groups. For group 1 (TAA group), there were 24 rats which received no therapy. The remaining […] were divided into three groups: Control group, n-BP treated group I (BP 80 mg/kg group) and n-BP treated group II (BP 500 mg/kg group). For these three groups, from the beginning of week 5 to the end of week 8, olive oil, n-BP (80 mg/Kg/day), and n-BP (500 mg/Kg/day) were orally administrated once per day to the rats, wherein the dosage was 1 ml of olive oil per kilogram body weight (Control group), 1 ml of 80 mg/ml n-BP olive oil solution per kilogram body weight (BP 80 mg/kg group), and 1 ml of 500 mg/ml n-BP olive oil solution per kilogram of body weight (BP 500 mg/kg group), respectively. n-BP was purchased from Alfa Aesar®, cat. A10353.
# (§4) At the end of 6, 8, and 10 weeks, rats of each group were sacrificed and cardiac blood samples were collected. These samples were analyzed with a biochemical analyzer (Integra 800; Roche, Holliston, Mass., USA) to measure the liver function index, which included glutamate oxaloacetate transaminase (GOT), glutamate pyruvate transaminase (GPT), serum albumin, and prothrombin time. Afterwards, the histopathology of liver tissue samples obtained from the sacrificed rats was also analyzed. Liver tissue samples were fixed in 3.7% formaldehyde and then embedded in paraffin. Serial 3-μm sections of the embedded tissues were stained with hematoxylin and eosin or Masson's trichrome as described above.
# [4] = test system: TAA induced fibrotic livers; assay: Thioacetamide (TAA)-induced chronic liver fibrosis rat model: gross examination and histopathology (H&E, Masson's trichrome, Metavir score); assay type: in vivo, Wistar rats
# Method: as §1, §2
# Afterwards, the histopathology of liver tissue samples obtained from the sacrificed rats were also analyzed. Liver tissue samples were fixed in 3.7% formaldehyde and then embedded in paraffin. Serial 3-μm sections of the embedded tissues were stained with hematoxylin and eosin or Masson's trichrome. Liver fibrosis is the excessive accumulation of collagen in liver, and therefore the accumulation of collagen is an important index for evaluating liver fibrosis. Masson's trichrome stain is frequently used to identify increases in collagenous tissue in fibrotic liver. For Masson's trichrome stain, sectioned samples were placed in Bouin's solution (Sigma-Aldrich) at 56° C. for 1 h and then were stained sequentially with the following solutions: Mayer's hematoxylin solution (Sigma-Aldrich) for 5 min, Biebrich scarlet-acid fuchsin solution (Sigma-Aldrich) for 15 min, phosphomolybdic acid-phosphotungstic acid (Sigma-Aldrich) for 15 min, and aniline blue (Sigma-Aldrich) for 5 min.
# as §3, §4
# [5] = both n-BP treated groups, end of week 10
SMILES,mortality [1],antianginal effect [2],effect on blood pressure or heart rate [2],"serum total bilirubin level ([3]; both n-BP treated groups, end of week 6 (two weeks after treatments) continuing to end of week 10)","prothrombin time [3, 5]","serum GOT level [3, 5]","serum GPT level [3, 5]","serum total bilirubin level versus Control group [3, 5]","prothrombin time ([3]; both n-BP treated groups, from the end of week 6)","liver function index including GOT, GPT, albumin, total bilirubin and prothrombin time, versus control group ([3]; n-BP 80 or 500 mg/Kg/day oral for four weeks)","serum albumin level ([3]; n-BP treated groups, end of week 10) [g/dL]","albumin level ([3]; n-BP treated groups, ends of week 6 and week 8)","gross examination of the liver ([4]; BP 80 mg/kg group (No. 73, 78) and BP 500 mg/kg group (No. 81, 87))",inflammatory activity scores (Metavir) ([4]; n-BP 80 or 500 mg/Kg/day oral),"fibrosis grade (Metavir), Masson's trichrome staining ([4]; n-BP 80 or 500 mg/Kg/day oral, weeks 5-8, on 42, 56 and 70 days, control group grade 3-4)","fibrosis score versus control group (olive oil) ([4]; n-BP 80 or 500 mg/Kg/day oral, 42, 56 and 70 days)","collagen accumulation in liver (Masson's trichrome staining) ([4]; n-BP 80 or 500 mg/Kg/day oral, 42, 56 and 70 days (weeks 6, 8, 10))","liver damage in hematoxylin and eosin stained sections ([4]; n-BP 80 or 500 mg/Kg/day oral, end of 8 weeks and 10 weeks)","inflammation and accumulation of collagen fibers (histopathological examinations) ([4]; therapy groups, n-BP 80 or 500 mg/Kg/day oral for four weeks)"
CC(=O)CCCCn1c(=O)c2c(ncn2C)n(C)c1=O [Pentoxifylline],significantly reduce the mortality,,,,,,,,,,,,,,,,,,
"CCCC=C1OC(=O)c2ccccc21 [n-BP, n-butylidenephthalide]",,relieves angina,without affecting blood pressure or the heart rate,decline at the end of week 6,decreased to approach that of the Normal group,decline to near-normal values,decline to near-normal values,significantly lower,decreases,significant recovery of liver damage,4.35 ± 0.47,rises,become even better like normal liver morphology,improvement in the recovery of the damaged liver occurs 2 weeks after n-BP treatment,1-2,lower,Collagen degradation was found; also recorded: almost no collagen accumulation,recovery from tissue degeneration and vacuolation was evident,significantly reduced

# Source: patent publication US8927601B2, “Uses of N-butylidenephthalide in treating a liver injury and improving liver function” (National Dong Hwa University, priority 2011, dated 2015)
